Reference: patent publication US9499509B2, “Dihydrochalcone derivatives and their use as antibiotic agents” (UNIVERSITÉ DU QUÉBEC À CHICOUTIMI, priority 2012, dated 2016)
Like-named read-outs stand apart in the source and are kept apart here.

What was measured:
[1] = test system: methicillin-resistant Staphylococcus aureus (MRSA) strains; test: Antibiotic assay (resazurin, Example 1), MRSA strains; type: cell-based; conditions: for IC50: read-out: IC50
Procedure, shortened: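 Ten MRSA strains isolated from screening swabs (nares, throat, groin pus) of patients at Chicoutimi hospital were tested, with S. aureus wild-type strain ATCC25923 run alongside. Isolates were identified using the Slidex Staph-Kit and API Staph strips. Methicillin resistance was confirmed by PBP2a latex agglutination and by a Kirby-Bauer disk diffusion antibiogram on Muller-Hinton agar at 37° C.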

S. aureus = test: Antibiotic assay (resazurin, Example 1), S. aureus strains of Table 3; type: cell-based, Staphylococcus aureus; conditions: for IC50: read-out: IC50
Source text: (§1) Bacteria Strain. […] The MRSA were obtained as further described below.
(§2) Antibiotic agents. Cyprofloxacin and erythromycin were provided by Sigma-Aldrich. Gentamicin sulfate and vancomycin hydrochloride were provided by Calbiochem.

Streptococcus pneumoniae = test: Antibiotic assay (resazurin, Example 1), Streptococcus pneumoniae; type: cell-based; conditions: for IC50: read-out: IC50
Experimental: as §1, §2
(§3) Five additional strains were tested: Streptococcus pneumoniae, Streptococcus agalactiae, Streptococcus pyogenes, Enterococcus faecalis and Corynebacterium jeikeium.

Enterococcus faecalis = test: Antibiotic assay (resazurin, Example 1), Enterococcus faecalis; type: cell-based; conditions: for IC50: read-out: IC50
Experimental: as §1, §2, §3

Streptococcus pyogenes = test: Antibiotic assay (resazurin, Example 1), Streptococcus pyogenes; type: cell-based; conditions: for IC50: read-out: IC50
Experimental: as §1, §2, §3

Streptococcus agalactiae = test: Antibiotic assay (resazurin, Example 1), Streptococcus agalactiae; type: cell-based; conditions: for IC50: read-out: IC50
Experimental: as §1, §2, §3

WS-1 cell lines = test: Cytotoxicity assay on WS-1 (Example 1); conditions: Table 5; WS-1, 48 h
Experimental: Cytotoxicity assay. The cytotoxicity assay was performed in 96-well plates (BD Falcon). The WS-1 cell lines were provided by ATCC. The WS-1 was cultured in DMEM+10% fetal calf serum. The cells were plated in a volume of 100 μL at a density of 5000 cells per well and incubated at 37° C.+5% CO2 for 24 h to promote cell adhesion.
The plates were incubated at 37° C.+5% CO2 for 48 h. The cells were then washed with 100 μL of HBSS and 150 μL of a 2% resazurin were added to the wells.
The therapeutic index is the ratio between the toxicity on normal cells, in this case fibroblast, and the toxicity on bacteria.

S. epidermidis = test: Antibiotic assay (resazurin, Example 1), S. epidermidis strains
Experimental: The antibiotic assays were performed in 96-well plates (BD Falcon). The bacteria strains were inoculated in Nutrient Broth (BD) for the gram negative bacteria and Tryptic soy broth (BD) with 10% of defibrinated sheep blood (PML microbiological) for gram positive strain. All bacteria strains were dosed by spectrophotometry at 660 nm where 1 D.O=2×10^8 bacteria/mL. All bacteria were plated in their respective broth at a concentration of 450 000 bacteria/mL.
Compounds I, II and III were diluted in methanol and the above-noted antibiotic agents were diluted in water. The solvent concentration was 0.25%, which was not toxic for the bacteria. Compounds I, II and III and the above-noted antibiotic agents were tested at 8 different concentrations.
Each well contained: 100 μL of bacteria, 50 μL of the compounds tested (compound I, II, III or the above-noted antibiotic agent) and 50 μL of a 4% resazurin (Sigma) solution. The plates were incubated at 37° C. for 5 h. The fluorescence was read using a Fluoroskan Ascent™ FL (thermo) using an excitation wavelength of 530 nm and an emission wavelength of 590 nm.
Two different strains of Staphylococcus were tested, namely the S. epidermidis and the S. aureus strains.

COc1ccc(CCC(=O)c2c(O)cc(O)c(C/C=C/c3ccc(O)cc3)c2O)cc1 [Compound II]
Minimum Inhibitory Concentration (MIC) ([1]; MRSA 1): (5.34) μM | IC50 ([1]; MRSA 1): 2.5 ± 0.2 µM | Minimum Inhibitory Concentration (MIC) ([1]; MRSA 2): (5.57) μM | IC50 ([1]; MRSA 2): 2.6 ± 0.2 µM | Minimum Inhibitory Concentration (MIC) ([1]; MRSA 3): (5.29) μM | IC50 ([1]; MRSA 3): 2.6 ± 0.2 µM | Minimum Inhibitory Concentration (MIC) ([1]; MRSA 4): (4.61) μM | IC50 ([1]; MRSA 4): 2.4 ± 0.1 µM | Minimum Inhibitory Concentration (MIC) ([1]; MRSA 5): (4.86) μM | IC50 ([1]; MRSA 5): 2.3 ± 0.4 µM | Minimum Inhibitory Concentration (MIC) ([1]; MRSA 6): (5.22) μM | IC50 ([1]; MRSA 6): 2.3 ± 0.2 µM | Minimum Inhibitory Concentration (MIC) ([1]; MRSA 7): (4.34) μM | IC50 ([1]; MRSA 7): 2.5 ± 0.2 µM | Minimum Inhibitory Concentration (MIC) ([1]; MRSA 8): (4.84) μM | IC50 ([1]; MRSA 8): 2.3 ± 0.2 µM | Minimum Inhibitory Concentration (MIC) ([1]; MRSA 9): (5.26) μM | IC50 ([1]; MRSA 9): 2.5 ± 0.2 µM | Minimum Inhibitory Concentration (MIC) ([1]; MRSA 10): (5.07) μM | IC50 ([1]; MRSA 10): 3.2 ± 0.2 µM | Minimum Inhibitory Concentration (MIC) (S. aureus; S. aureus 14094): (6.2) μM | IC50 (S. aureus; S. aureus 14094): 3.5 ± 0.3 µM | Minimum Inhibitory Concentration (MIC) (S. aureus; S. aureus 14108): (6.81) μM | IC50 (S. aureus; S. aureus 14108): 3.3 ± 0.2 µM | Minimum Inhibitory Concentration (MIC) (S. aureus; S. aureus 14118): (5.05) μM | Minimum Inhibitory Concentration (MIC) (S. aureus; S. aureus 14154): (4.88) μM | IC50 (S. aureus; S. aureus 14154): 2 ± 0.1 µM | Minimum Inhibitory Concentration (MIC) (Streptococcus pneumoniae; Strep. pneumoniae 14070): (122) μM | IC50 (Streptococcus pneumoniae; Strep. pneumoniae 14070): 54 ± 4 µM | Minimum Inhibitory Concentration (MIC) (Streptococcus pneumoniae; Strep. pneumoniae 14112): (169) μM | IC50 (Streptococcus pneumoniae; Strep. pneumoniae 14112): 74 ± 6 µM | Minimum Inhibitory Concentration (MIC) (Streptococcus pneumoniae; Strep. pneumoniae 14138): (>200) μM | IC50 (Streptococcus pneumoniae; Strep. pneumoniae 14138): > 200 µM | Minimum Inhibitory Concentration (MIC) (Streptococcus pneumoniae; Strep. pneumoniae 14144): (>200) μM | IC50 (Streptococcus pneumoniae; Strep. pneumoniae 14144): > 200 µM | Minimum Inhibitory Concentration (MIC) (Streptococcus pneumoniae; Strep. pneumoniae 14148): (200) μM | IC50 (Streptococcus pneumoniae; Strep. pneumoniae 14148): 83 ± 7 µM | activity against Streptococcus pneumoniae 14070 strain (Streptococcus pneumoniae; in words): active | activity against Streptococcus pneumoniae strain 14144 (Streptococcus pneumoniae; in words): not active | Minimum Inhibitory Concentration (MIC) (Enterococcus faecalis; Ent. Faecalis 14078): (>200) μM | IC50 (Enterococcus faecalis; Ent. Faecalis 14078): > 200 µM | Minimum Inhibitory Concentration (MIC) (Enterococcus faecalis; Ent. Faecalis 14115): (>200) μM | IC50 (Enterococcus faecalis; Ent. Faecalis 14115): > 200 µM | activity against Enterococcus faecalis (Enterococcus faecalis; in words): No activity | Minimum Inhibitory Concentration (MIC) (Streptococcus pyogenes; Strep. pyogenes 14149): (>200) μM | IC50 (Streptococcus pyogenes; Strep. pyogenes 14149): > 200 µM | Minimum Inhibitory Concentration (MIC) (Streptococcus pyogenes; Strep. pyogenes 14152): (>200) μM | IC50 (Streptococcus pyogenes; Strep. pyogenes 14152): 90 ± 7 µM | activity against Streptococcus pyogenes strain 14152 (Streptococcus pyogenes; in words): active | Minimum Inhibitory Concentration (MIC) (Streptococcus agalactiae; Strep. agalactiae 14150): (>200) μM | IC50 (Streptococcus agalactiae; Strep. agalactiae 14150): 169 ± 3 µM | Minimum Inhibitory Concentration (MIC) (Streptococcus agalactiae; Strep. agalactiae 14151): (>200) μM | IC50 (Streptococcus agalactiae; Strep. agalactiae 14151): > 200 µM | Minimum Inhibitory Concentration (MIC) (Streptococcus agalactiae; Strep. agalactiae 14153): (>200) μM | IC50 (Streptococcus agalactiae; Strep. agalactiae 14153): > 200 µM | activity against Streptococcus agalactiae strain 14150 (Streptococcus agalactiae; in words): active | WS-1 (toxicity on normal cells, fibroblast) (WS-1 cell lines): 27 ± 4 | IC50 (S. epidermidis; S. epidermidis 14069): 5 ± 0.3 µM | Minimum Inhibitory Concentration (MIC) (S. epidermidis; S. epidermidis 14069): (12.7) μM | IC50 (S. epidermidis; S. epidermidis 14085): 4.4 ± 0.3 µM | Minimum Inhibitory Concentration (MIC) (S. epidermidis; S. epidermidis 14085): (14.3) μM | IC50 (S. epidermidis; S. epidermidis 14093): 7 ± 0.3 µM | Minimum Inhibitory Concentration (MIC) (S. epidermidis; S. epidermidis 14093): (11.2) μM | IC50 (S. epidermidis; S. epidermidis 14134): 3.8 ± 0.6 µM | Minimum Inhibitory Concentration (MIC) (S. epidermidis; S. epidermidis 14134): (13.5) μM | IC50 (S. epidermidis; S. epidermidis 14143): 5.8 ± 0.2 µM | Minimum Inhibitory Concentration (MIC) (S. epidermidis; S. epidermidis 14143): (10.9) μM | activity on S. epidermidis compared with ciprofloxacin (S. epidermidis; in words): more active than ciprofloxacin
